Values quoted from earlier work, collected in patent US20120184751A1, “POLYMORPHIC FORM OF OLMESARTAN MEDOXOMIL” (RANBAXY LABORATORIES LIMITED, priority 2009, published 2012).

Details: 75% relative humidity at 40° C. for one month

CCCc1nc(C(C)(C)O)c(C(=O)OCc2oc(=O)oc2C)n1Cc1ccc(-c2ccccc2-c2nnn[nH]2)cc1 [amorphous olmesartan medoxomil, 2,3-dihydroxy-2-butenyl-4-(1-hydroxy-1-methylethyl)-2-propyl-1-[p-(o-1H-tetrazol-5-ylphenyl)benzyl]imidazole-5-carboxylate, cyclic 2,3-carbonate]
solid-state stability / form conversion on storage: converts into hydrated olmesartan medoxomil having crystalline appearance
